{"source": "patent US20060046976A1", "about": "“Method for increasing the bone mineral density and bone micro-architecture or connectivity of a mammal using N-acylated glucosamines” (priority 2004, published 2006)", "key": {"ovariectomised rats [1]": {"system": "ovariectomised rats", "test": "Femoral and spine BMD by DXA in ovariectomised rats fed GlcNBu", "assay_type": "in vivo, rat", "conditions": "200 mg GlcNBu by mouth daily, 6 months", "from_the_text": "This investigation was designed to test the effects of GlcNBu on the BMD of the femurs in an ovariectomised rat model. The experiments performed are described as follows.\nFIGS. 1A and 1B show the effect of GlcNBu feeding on femoral BMD with time, over six months, in the ovariectomized rat. Both the top and bottom panels show the mean total designated herein as global BMD of the femurs for the 8 animals in each group, with time. The actual BMD values are shown on the vertical axes. FIG. 1A Glc-O represents the data from the ovariectomised rats fed with glucose and FIG. 1B GlcNBu-O represents data from the ovariectomised rats fed with GlcNBu. The sequential DXA scans for estimating BMD at times 0, 2 months, 4 months and 6 months are illustrated on the horizontal axis and designated as Sequential Scan number 1.0, 2.0. 3.0 and 4.0, respectively.\nSixteen ovariectomised rats (Charles River Laboratories), approximately 200 g in weight, were randomized into two groups. The control group received 200 mg of glucose, by mouth as single daily doses and the GlcNBu-treated group received 200 mg of GlcNBu by mouth, as single daily doses, for a total period of six (6) months. A similar group of non-ovariectomised animals was fed with GlcNBu or glucose at the same doses. […] Consistent position of the femurs was assured with a pre-determined grid. […]"}, "[2]": {"system": "non-ovariectomised animals", "test": "BMD by DXA in non-ovariectomised rats fed GlcNBu", "assay_type": "in vivo, rat", "conditions": "200 mg GlcNBu daily, not statistically significant, data not shown", "experimental": "(§1) Sixteen ovariectomised rats (Charles River Laboratories), approximately 200 g in weight, were randomized into two groups. The control group received 200 mg of glucose, by mouth as single daily doses and the GlcNBu-treated group received 200 mg of GlcNBu by mouth, as single daily doses, for a total period of six (6) months. A similar group of non-ovariectomised animals was fed with GlcNBu or glucose at the same doses. The feeding of the compounds was done in small amounts of peanut butter which was very acceptable to the rats, which were allowed free access to water and rat chow. The animals had the BMDs of the femurs (total or global BMD) and the lumbar spines were estimated at baseline and then at, approximately 2, 4 and 6 months. Consistent position of the femurs was assured with a pre-determined grid. A Hologic 4500 DXA machine, with small animal software, was employed for the study. The animals were lightly anesthetized for each measurement."}, "ovariectomised rats [3]": {"system": "ovariectomised rats", "test": "Wet weight of femurs, ovariectomised rats", "assay_type": "in vivo, rat", "conditions": "ovariectomised animals, oral feeding of GlcNBu, 6 months", "experimental": "as §1\n(§2) At the end of the experiment, the animals were sacrificed, plasma was collected by cardiac puncture, and the femurs removed, fully dissected from adherent tissue and the wet weight was determined. The concentrations of Insulin-like Growth factor I (IGF-1) in the plasma, obtained at the end of the experiment, were determined by a commercial immunological method."}, "[4]": {"system": "non-ovariectomised animals", "test": "Wet weight of femurs, non-ovariectomised rats", "assay_type": "in vivo, rat", "conditions": "oral feeding of GlcNBu, 6 months", "experimental": "as §1, §2"}, "[5]": {"system": "Insulin-like Growth factor I (IGF-1)", "test": "Plasma IGF-1 concentration by commercial immunological method", "assay_type": "in vivo, rat", "conditions": "end of 6 months; ovariectomised GlcNBu fed rats compared to GlcNBu fed non-ovariectomised rats; p=0.044", "experimental": "as §1, §2"}, "SCW-arthritis rats": {"system": "SCW-arthritis rats", "test": "BMD by DXA of femurs and tibias in SCW-arthritis rats", "assay_type": "in vivo, Lewis type rats", "conditions": "6 weeks", "from_the_text": "In this experiment performed and described herein, there were four groups of Lewis type rats, consisting of eight (8) animals in each group. Lewis type rats had experimental arthritis induced by a single intra-peritoneal injection of streptococcal cell wall antigen (SCW). This type of arthritis has an acute and chronic phase and affects mostly the distal joints in the hind limbs of the animals, and, less so, the knees and hips. Groups 1-3, inclusive, had inflammatory arthritis induced. The compound used in the experiment was used to supplement normal rat chow feed on a daily basis. Feed and water were unrestricted. Group I feed was supplemented with the compound shown in formula II, abbreviated as GlcNBu, at a dose of 200mg/kg/day. […] All the dissected femurs and tibiae were scanned with dual energy x-ray absorptiometry (DXA) were measured at the distal femur, and proximal tibia using a user defined region of interest (ROI). • Micro-CT imaging protocol. […] The reconstructed tibia images were analyzed with MicroView 2.0 software (GE Healthcare, London, ON) in two and three dimensions. • Three-dimensional trabecular bone measurements. […] On 3D analysis, the tissue volume (3D-TV, mm3) and trabecular bone volume (3D-BV, mm3) were measured directly, and the fractional trabecular bone volume (3D-BV/TV, %) was calculated. […]"}}}
{"smiles": "CCCC(=O)N[C@H]1C(O)O[C@H](CO)[C@@H](O)[C@@H]1O", "note": "(stereo partly drawn) [GlcNBu, N-butyryl-D-glucosamine]", "values": [{"measurement": "BMD of the spines vs glucose-fed", "setting": "ovariectomised rats [1]; data not shown", "value": "the differences were not reach statistical significance"}, {"measurement": "femoral BMD (global) plateau vs control (glucose-fed) rats", "setting": "ovariectomised rats [1]; plateau after 4 months, p<0.05", "value": "significantly higher"}, {"measurement": "BMD at the sites measured vs glucose-fed animals", "setting": "[2]", "value": "higher trends in the BMD"}, {"measurement": "femoral wet weight", "setting": "ovariectomised rats [3]", "value": "increases femoral wet weight"}, {"measurement": "femoral wet weight", "setting": "[4]", "value": "increases femoral wet weight"}, {"measurement": "plasma IGF-1 concentration", "setting": "[5]", "value": "significant difference"}, {"measurement": "BMD femurs and tibias, Group I (GlcNBu 200 mg) vs Group 3 (GlcNBu 20 mg)", "setting": "SCW-arthritis rats; 200 mg/kg/day in feed", "value": "much greater"}, {"measurement": "BMD differences between Group 1 (GlcNBu 200 mg) and other Groups", "setting": "SCW-arthritis rats; 200 mg/kg/day", "value": "Statistical significance of the differences was achieved"}]}
